# In patent publication US20210022305A1, “A HUMULUS PLANT VARIANT AND EXTRACTS THEREOF” (BOMI LLC, priority 2018, published 2021):
# Tested on: VIC cells
# Experiment: VIC calcification reduction (Alizarin Red S nodule number and area)
# Assay type: cell-based, porcine
# Experimental: VIC Isolation and Culture. VICs were isolated from porcine aortic valve leaflets (Hormel, Austin, Minn.) by collagenase digestion and subsequently cultured in growth medium (15% FBS, 2 mM L-glutamine, 100 U/ml penicillin, and 100 µg/ml streptomycin in medium 199) at 37° C., 5% CO2 for two to four passages. VICs used in all experiments were seeded at a density of 50,000 cells/cm^2 onto 24-well or 96-well plates. During the experiments, the VICs were cultured in low-serum medium (1% FBS, 100 U/ml penicillin, 100 µg/ml streptomycin, 2 mM L-glutamine, in medium 199), and the medium was changed each day until the fifth day.
# Culture Substrate Coatings. Tissue culture polystyrene (TCPS) plates (24-well or 96-well) were coated with type I collagen (Coll) (Inamed Biomaterials, Fremont, Calif.; […]), fibronectin (FN, 5 g/cm^2), fibrin (FB, […]), or left untreated (TCPS). For the FB coating, plates were first incubated overnight at 4° C. in fibrinogen (1 mg/mL), followed by three washes with 0.05% Tween 20 in phosphate-buffered saline (PBS) and 1 hour incubation with thrombin (0.6 mg/ml) at 37° C. (Gu et al., “Role of the MAPK/ERK Pathway in Valvular Interstitial Cell Calcification,” American Journal of Physiology—Heart and Circulatory Physiology 296(6):H1748-H1757 (2009), which is hereby incorporated by reference in its entirety). All coatings were prepared in 50 mM bicarbonate coating buffer, pH 8.5, and rinsed three times with PBS before cell seeding. The amounts of adsorbed proteins were measured on separate plates using the bicinchoninic acid protein assay (Pierce, Rockford, Ill.) to verify adsorption of protein coatings.
# Quantification of Nodule Number and Size. After 5 days of culture in the presence or absence of U-0126 or PD-98059, VIC cultures were stained with Alizarin Red S (ARS) to facilitate quantification of calcified nodules, as ARS stains mineralized deposits red. Cultures were fixed with 10% neutral buffered formalin, stored at 4° C. overnight, and stained with a 2% solution of ARS in PBS. Positively stained nodules were manually counted under a microscope (Olympus IX51 with Hamamatsu 285 digital camera and Simple PCI digital imaging software; Compix, Imaging Systems, Cranberry Township, Pa.). Nodule size was measured using ImageJ software (National Institutes of Health), and photomicrographs were captured under 40 and 100 magnifications.
# Multiplate wells containing calcifying VICs from 27 different tissue samples were treated with CBD of 8 different bioactivities, and 5 different mg concentrations, or left untreated. Average calcification was computed using the number of nodules per well, and the average area per nodule. Average total nodule area for untreated wells was 3.27 mm^2 (SD=0.32, min=0.5, max=4.0) per well. All reported percent reductions in calcification were computed by dividing average nodule area of treated wells from 3.27 mm^2. CBD samples were clustered according to their bioactivity levels around the values, 0.20, 0.30, 0.50, 0.60, 0.70, 0.80, 0.90, and 0.95. Mg dosages of 5, 10, 25, 40, and 100 were examined.
# Culture Substrate Coatings. Tissue culture polystyrene (TCPS) plates (24-well or 96-well) were coated with type I collagen (Coll) (Inamed Biomaterials, Fremont, Calif.; […]), fibronectin (FN, 5 g/cm^2), fibrin (FB, 1.5 g/cm^2), or left untreated (TCPS). For the FB coating, plates were first incubated overnight at 4° C. in fibrinogen (1 mg/mL), followed by three washes with 0.05% Tween 20 in phosphate-buffered saline (PBS) and 1 hour incubation with thrombin (0.6 mg/mL) at 37° C. All coatings were prepared in 50 mM bicarbonate coating buffer, pH 8.5, and rinsed three times with PBS before cell seeding. The amounts of adsorbed proteins were measured on separate plates using the bicinchoninic acid protein assay (Pierce, Rockford, Ill.) to verify adsorption of protein coatings. […]
# [1] = Example 4, 5 mg, CBD = 0.95 bioactivity
# [2] = Example 4, 10 mg, CBD = 0.95 bioactivity
# [3] = Example 4, 25 mg, CBD = 0.95 bioactivity
# [4] = Example 4, 40 mg, CBD = 0.95 bioactivity
# [5] = Example 4, 100 mg, CBD = 0.95 bioactivity
smiles,measurement,setting,value
"C=C(C)C1CCC(C)=CC1c1c(O)cc(CCCCC)cc1O (stereo not drawn) [CBD, 2-(6-isopropenyl-3-methyl-2-cyclohexen-l-yl)-5-pentyl-1,3-benzenediol]","Calcification reduction, M","5 mg, bioactivity .20",5.17%
same,"Calcification reduction, Max","5 mg, bioactivity .20",6.9%
same,"Calcification reduction, Min","5 mg, bioactivity .20",3.8%
same,"Calcification reduction, M","5 mg, bioactivity .30",6.16%
same,"Calcification reduction, Max","5 mg, bioactivity .30",7.3%
same,"Calcification reduction, Min","5 mg, bioactivity .30",5.2%
same,"Calcification reduction, M","5 mg, bioactivity .50",7.63%
same,"Calcification reduction, Max","5 mg, bioactivity .50",9.1%
same,"Calcification reduction, Min","5 mg, bioactivity .50",5.3%
same,"Calcification reduction, M","5 mg, bioactivity .60",7.99%
same,"Calcification reduction, Max","5 mg, bioactivity .60",10.4%
same,"Calcification reduction, Min","5 mg, bioactivity .60",6.2%
same,"Calcification reduction, M","5 mg, bioactivity .70",10.06%
same,"Calcification reduction, Max","5 mg, bioactivity .70",13.6%
same,"Calcification reduction, Min","5 mg, bioactivity .70",7.3%
same,"Calcification reduction, M","5 mg, bioactivity .80",14.32%
same,"Calcification reduction, Max","5 mg, bioactivity .80",16.6%
same,"Calcification reduction, Min","5 mg, bioactivity .80",11.3%
same,"Calcification reduction, M","5 mg, bioactivity .90",18.06%
same,"Calcification reduction, Max","5 mg, bioactivity .90",21%
same,"Calcification reduction, Min","5 mg, bioactivity .90",14.6%
same,"Calcification reduction, M","5 mg, bioactivity .95",19.42%
same,"Calcification reduction, Max","5 mg, bioactivity .95",22.1%
same,"Calcification reduction, Min","5 mg, bioactivity .95",15.4%
same,"Calcification reduction, M","10 mg, bioactivity .20",4.95%
same,"Calcification reduction, Max","10 mg, bioactivity .20",6.2%
same,"Calcification reduction, Min","10 mg, bioactivity .20",3.7%
same,"Calcification reduction, M","10 mg, bioactivity .30",6.24%
same,"Calcification reduction, Max","10 mg, bioactivity .30",7.5%
same,"Calcification reduction, Min","10 mg, bioactivity .30",4.9%
same,"Calcification reduction, M","10 mg, bioactivity .50",9.77%
same,"Calcification reduction, Max","10 mg, bioactivity .50",11.7%
same,"Calcification reduction, Min","10 mg, bioactivity .50",7.7%
same,"Calcification reduction, M","10 mg, bioactivity .60",11.8%
same,"Calcification reduction, Max","10 mg, bioactivity .60",14.3%
same,"Calcification reduction, Min","10 mg, bioactivity .60",9.2%
same,"Calcification reduction, M","10 mg, bioactivity .70",14.33%
same,"Calcification reduction, Max","10 mg, bioactivity .70",17.2%
same,"Calcification reduction, Min","10 mg, bioactivity .70",10.2%
same,"Calcification reduction, M","10 mg, bioactivity .80",20.03%
same,"Calcification reduction, Max","10 mg, bioactivity .80",24.6%
same,"Calcification reduction, Min","10 mg, bioactivity .80",15.9%
same,"Calcification reduction, M","10 mg, bioactivity .90",25.04%
same,"Calcification reduction, Max","10 mg, bioactivity .90",30.3%
same,"Calcification reduction, Min","10 mg, bioactivity .90",20.5%
same,"Calcification reduction, M","10 mg, bioactivity .95",25.56%
same,"Calcification reduction, Max","10 mg, bioactivity .95",32.5%
same,"Calcification reduction, Min","10 mg, bioactivity .95",18.5%
same,"Calcification reduction, M","25 mg, bioactivity .20",6.07%
same,"Calcification reduction, Max","25 mg, bioactivity .20",7.1%
same,"Calcification reduction, Min","25 mg, bioactivity .20",4.8%
same,"Calcification reduction, M","25 mg, bioactivity .30",6.23%
same,"Calcification reduction, Max","25 mg, bioactivity .30",8.1%
same,"Calcification reduction, Min","25 mg, bioactivity .30",4.6%
same,"Calcification reduction, M","25 mg, bioactivity .50",10.89%
same,"Calcification reduction, Max","25 mg, bioactivity .50",12.5%
same,"Calcification reduction, Min","25 mg, bioactivity .50",9.5%
same,"Calcification reduction, M","25 mg, bioactivity .60",13.75%
same,"Calcification reduction, Max","25 mg, bioactivity .60",15.3%
same,"Calcification reduction, Min","25 mg, bioactivity .60",10.5%
same,"Calcification reduction, M","25 mg, bioactivity .70",16.55%
same,"Calcification reduction, Max","25 mg, bioactivity .70",18.6%
same,"Calcification reduction, Min","25 mg, bioactivity .70",14.3%
same,"Calcification reduction, M","25 mg, bioactivity .80",24.94%
same,"Calcification reduction, Max","25 mg, bioactivity .80",30.3%
same,"Calcification reduction, Min","25 mg, bioactivity .80",20.2%
same,"Calcification reduction, M","25 mg, bioactivity .90",30.51%
same,"Calcification reduction, Max","25 mg, bioactivity .90",35.6%
same,"Calcification reduction, Min","25 mg, bioactivity .90",23.5%
same,"Calcification reduction, M","25 mg, bioactivity .95",32.69%
same,"Calcification reduction, Max","25 mg, bioactivity .95",42.6%
same,"Calcification reduction, Min","25 mg, bioactivity .95",26.3%
same,"Calcification reduction, M","40 mg, bioactivity .20",5.19%
same,"Calcification reduction, Max","40 mg, bioactivity .20",6.9%
same,"Calcification reduction, Min","40 mg, bioactivity .20",3.6%
same,"Calcification reduction, M","40 mg, bioactivity .30",7.13%
same,"Calcification reduction, Max","40 mg, bioactivity .30",8.1%
same,"Calcification reduction, Min","40 mg, bioactivity .30",5.1%
same,"Calcification reduction, M","40 mg, bioactivity .50",14.2%
same,"Calcification reduction, Max","40 mg, bioactivity .50",17.1%
same,"Calcification reduction, Min","40 mg, bioactivity .50",12%
same,"Calcification reduction, M","40 mg, bioactivity .60",19.23%
same,"Calcification reduction, Max","40 mg, bioactivity .60",21.9%
same,"Calcification reduction, M","40 mg, bioactivity .70",24.7%
same,"Calcification reduction, Max","40 mg, bioactivity .70",33%
same,"Calcification reduction, Min","40 mg, bioactivity .70",18.9%
same,"Calcification reduction, M","40 mg, bioactivity .80",28.54%
same,"Calcification reduction, Max","40 mg, bioactivity .80",34.6%
same,"Calcification reduction, Min","40 mg, bioactivity .80",22.4%
same,"Calcification reduction, M","40 mg, bioactivity .90",40.09%
same,"Calcification reduction, Max","40 mg, bioactivity .90",44.6%
same,"Calcification reduction, Min","40 mg, bioactivity .90",33.7%
same,"Calcification reduction, M","40 mg, bioactivity .95",42.98%
same,"Calcification reduction, Max","40 mg, bioactivity .95",54.5%
same,"Calcification reduction, Min","40 mg, bioactivity .95",35.8%
same,"Calcification reduction, M","100 mg, bioactivity .20",6.1%
same,"Calcification reduction, Max","100 mg, bioactivity .20",7.5%
same,"Calcification reduction, Min","100 mg, bioactivity .20",5.2%
same,"Calcification reduction, M","100 mg, bioactivity .30",7.2%
same,"Calcification reduction, Max","100 mg, bioactivity .30",8.4%
same,"Calcification reduction, Min","100 mg, bioactivity .30",6%
same,"Calcification reduction, M","100 mg, bioactivity .50",16.1%
same,"Calcification reduction, Max","100 mg, bioactivity .50",18.1%
same,"Calcification reduction, Min","100 mg, bioactivity .50",14.1%
same,"Calcification reduction, M","100 mg, bioactivity .60",21.54%
same,"Calcification reduction, Max","100 mg, bioactivity .60",23.7%
same,"Calcification reduction, Min","100 mg, bioactivity .60",18.3%
same,"Calcification reduction, M","100 mg, bioactivity .70",30.71%
same,"Calcification reduction, Max","100 mg, bioactivity .70",35.6%
same,"Calcification reduction, Min","100 mg, bioactivity .70",25.8%
same,"Calcification reduction, M","100 mg, bioactivity .80",37.74%
same,"Calcification reduction, Max","100 mg, bioactivity .80",44.4%
same,"Calcification reduction, Min","100 mg, bioactivity .80",31.7%
same,"Calcification reduction, M","100 mg, bioactivity .90",48.52%
same,"Calcification reduction, Max","100 mg, bioactivity .90",54.7%
same,"Calcification reduction, Min","100 mg, bioactivity .90",37.6%
same,"Calcification reduction, M","100 mg, bioactivity .95",55%
same,"Calcification reduction, Max","100 mg, bioactivity .95",66.1%
same,"Calcification reduction, Min","100 mg, bioactivity .95",41.9%
same,"Calcification reduction, M",[1],19.42%
same,"Calcification reduction, Max",[1],22.1%
same,"Calcification reduction, Min",[1],15.4%
same,"Calcification reduction, M",[2],25.56%
same,"Calcification reduction, Max",[2],32.5%
same,"Calcification reduction, Min",[2],18.5%
same,"Calcification reduction, M",[3],32.69%
same,"Calcification reduction, Max",[3],42.6%
same,"Calcification reduction, Min",[3],26.3%
same,"Calcification reduction, M",[4],42.98%
same,"Calcification reduction, Max",[4],54.5%
same,"Calcification reduction, Min",[4],35.8%
same,"Calcification reduction, M",[5],55%
same,"Calcification reduction, Max",[5],66.1%
same,"Calcification reduction, Min",[5],41.9%
